In publication PMC11672294, “The Antipsychotic Drug Aripiprazole Suppresses Colorectal Cancer by Targeting LAMP2a to Induce RNH1/miR‐99a/mTOR‐Mediated Autophagy and Apoptosis” (Advanced Science, 2024):
Where a name gives a salt, the structure may show the parent alone.

system: HT29; conditions: 72 h, relative to DMSO, 10 µM, Relative cell viability (%)
Outline: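 HT29 viability used WST-1 reduction (2 h, 37 °C, A450) after 72 h of treatment; screening compounds were tested singly at 10 µM, with dimethyl sulfoxide as the comparison.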

Row | Structure (SMILES) | Relative cell viability (%)
1 | COc1cc(Nc2ncc(F)c(Nc3ccc4c(n3)N(COP(=O)(O)O)C(=O)C(C)(C)O4)n2)cc(OC)c1OC [R788 (Fostamatinib) Disodium] | 100.8%

same assay, conditions: 72 h, relative to DMSO; 10 µM

Row | Structure (SMILES) | Relative cell viability (%)
2 | O=C(O)c1cc(=O)[nH]c(=O)[nH]1 [Orotic acid (6-Carboxyuracil)] | 101.4%
3 | Cc1ccccc1C(OCCN(C)C)c1ccccc1 (centres unmarked) [Orphenadrine Citrate] | 102.4%
4 | CCOC(=O)C1=C[C@@H](OC(CC)CC)[C@H](NC(C)=O)[C@@H](N)C1 [Oseltamivir Phosphate] | 60.68%
5 | OCCOc1ccc(/C(=C(/CCCl)c2ccccc2)c2ccccc2)cc1 [Ospemifene] | 80.303%
6 | CCNC1(C(N)=O)CCN(c2ncnc3c2nc(-c2ccccc2Cl)n3-c2ccc(Cl)cc2)CC1 [Otenabant (CP-945598) HCl] | 70.09%
7 | CCCCCCCCOc1ccccc1C(=O)Nc1ccc(C(=O)OCC[N+](C)(CC)CC)cc1 [Otilonium Bromide] | 59.22%
8 | O=C(O)CCc1nc(-c2ccccc2)c(-c2ccccc2)o1 [Oxaprozin] | 63.03%
9 | COC(=O)Nc1nc2ccc([S+]([O-])c3ccccc3)cc2[nH]1 (centres unmarked) [Oxfendazole] | 57.63%
10 | NC(=O)CN1CC(O)CC1=O (centres unmarked) [Oxiracetam] | 54.85%
11 | COc1ccc(C(=O)c2ccccc2)c(O)c1 [Oxybenzone] | 118.8%
12 | CCCCOc1cc(C(=O)OCCN(CC)CC)ccc1N [Oxybuprocaine HCl] | 56.67%
13 | CCN(CC)CC#CCOC(=O)C(O)(c1ccccc1)C1CCCCC1 (centres unmarked) [Oxybutynin] | 58.9%
14 | CN(C)[C@@H]1C(O)=C(C(N)=O)C(=O)[C@@]2(O)C(O)=C3C(=O)c4c(O)cccc4[C@@](C)(O)[C@H]3[C@H](O)[C@@H]12 [Oxytetracycline Dihydrate] | 170.4%
15 | O=C(O)/C=C/c1ccc(Cn2ccnc2)cc1 [Ozagrel HCl] | 127.9%
16 | CC(C)Oc1ccc(-c2nc(-c3cccc4c3CC[C@@H]4NCCO)no2)cc1C#N [Ozanimod (RPC1063)] | 47.01%
17 | Fc1ccc([C@@H]2CCNC[C@H]2COc2ccc3c(c2)OCO3)cc1 [Paroxetine HCl] | 19.9%
18 | Cc1ccc(Nc2nccc(N(C)c3ccc4c(C)n(C)nc4c3)n2)cc1S(N)(=O)=O [Pazopanib] | 46.12%
19 | Nc1nc2c(ncn2CCC(CO)CO)c(=O)[nH]1 [Penciclovir] | 100.303%
20 | N#Cc1ccccc1-c1cc(-c2ccccn2)cn(-c2ccccc2)c1=O [Perampanel] | 104.7%
21 | FC(F)(F)c1ccc(CNc2ccc(Cc3c[nH]c4ncc(Cl)cc34)cn2)cn1 [Pexidartinib (PLX3397)] | 54.7%
22 | Cc1ccc(-n2nc(C(C)(C)C)cc2NC(=O)NCc2cc(F)ccc2Oc2ccc3c(cnn3CCO)c2)cc1 [Pexmetinib (ARRY-614)] | 47.01%
23 | Nc1ccc(/N=N/c2ccccc2)c(N)n1 [Phenazopyridine HCl] | 73.94%
24 | O=C1c2ccccc2C(=O)C1c1ccccc1 [Phenindione] | 136.8%

Row | Structure (SMILES) | Relative cell viability (%)
25 | COc1ccc(Cl)c(Nc2nc3ccccc3nc2NS(=O)(=O)c2cccc(NC(=O)C(C)(C)N)c2)c1 [Pilaralisib (XL147)] | 48.29%
26 | CC[C@@H]1/C=C(\C)C[C@H](C)C[C@H](OC)[C@H]2O[C@@](O)(C(=O)C(=O)N3CCCC[C@H]3C(=O)O[C@H](/C(C)=C/[C@@H]3CC[C@H](Cl)[C@H](OC)C3)[C@H](C)[C@@H](O)CC1=O)[C@H](C)C[C@@H]2OC [Pimecrolimus] | 64.96%
27 | CCc1ccc(CCOc2ccc(CC3SC(=O)NC3=O)cc2)nc1 (centres unmarked) [Pioglitazone HCl] | 158.4%
28 | CCN1CCN(C(=O)N[C@@H](C(=O)N[C@@H]2C(=O)N3[C@@H]2SC(C)(C)[C@@H]3C(=O)O)c2ccccc2)C(=O)C1=O [Piperacillin Sodium] | 73.94%
29 | O=C(/C=C/C=C/c1ccc2c(c1)OCO2)N1CCCCC1 [Piperine] | 104.9%
30 | Cc1ccc(=O)n(-c2ccccc2)c1 [Pirfenidone] | 56.31%
31 | O=C(O)C[C@H](O)C[C@H](O)/C=C/c1c(C2CC2)nc2ccccc2c1-c1ccc(F)cc1 [Pitavastatin Calcium] | 44.92%
32 | CC[C@@H]([C@H](C)O)n1ncn(-c2ccc(N3CCN(c4ccc(OC[C@@H]5CO[C@@](Cn6cncn6)(c6ccc(F)cc6F)C5)cc4)CC3)cc2)c1=O [Posaconazole] | 32.24%
33 | C=CN1CCCC1=O [Povidone iodine] | 91.88%
34 | C=CC(=O)N1CCC(Oc2cc3c(Nc4ccc(Cl)c(Cl)c4F)ncnc3cc2OC)CC1 [Poziotinib (HM781-36B)] | 68.8%
35 | CCCN[C@H]1CCc2nc(N)sc2C1 [Pramipexole dihydrochloride monohydrate] | 205.2%
36 | CC(C)N(CCNC(=O)CN1CCCC1=O)C(C)C [Pramiracetam] | 79.61%
37 | O=C(Nc1cccc2c(=O)cc(-c3nnn[nH]3)oc12)c1ccc(OCCCCc2ccccc2)cc1 [Pranlukast] | 81.78%
38 | CC(C(=O)O)c1ccc2c(c1)Cc1cccnc1O2 (centres unmarked) [Pranoprofen] | 135%
39 | CC(=O)Oc1cc2c(s1)CCN(C(C(=O)C1CC1)c1ccccc1F)C2 (centres unmarked) [Prasugrel] | 68.07%
40 | CC[C@H](C)C(=O)O[C@H]1C[C@H](O)C=C2C=C[C@H](C)[C@H](CC[C@@H](O)C[C@@H](O)CC(=O)O)[C@H]21 [Pravastatin sodium] | 89.81%
41 | C[C@]12C=CC(=O)C=C1CC[C@@H]1[C@@H]2[C@@H](O)C[C@@]2(C)[C@H]1CC[C@]2(O)C(=O)CO [Prednisolone] | 56.36%
42 | CC(=O)[C@H]1CC[C@H]2[C@@H]3CC=C4C[C@@H](O)CC[C@]4(C)[C@H]3CC[C@]12C [Pregnenolone] | 94.21%
43 | CCC1(c2ccccc2)C(=O)NCNC1=O [Primidone] | 178.2%
44 | CC(C)(Sc1cc(C(C)(C)C)c(O)c(C(C)(C)C)c1)Sc1cc(C(C)(C)C)c(O)c(C(C)(C)C)c1 [Probucol] | 130.3%
45 | CCN(CC)CCNC(=O)c1ccc(N)cc1 [Procainamide HCl] | 73.94%
46 | CC(CN1c2ccccc2Sc2ccccc21)N(C)C (centres unmarked) [Promethazine HCl] | 62.12%
47 | CCCOc1ccc(C(=O)OCCN(CC)CC)cc1N [Proparacaine HCl] | 89.41%

Row | Structure (SMILES) | Relative cell viability (%)
48 | CCCc1cc(=O)[nH]c(=S)[nH]1 [Propylthiouracil] | 201.3%
49 | CCCc1cc(C(N)=S)ccn1 [Protionamide] | 123.7%
50 | NC(=O)[C@@H]1CCCN1C(=O)[C@H](Cc1cnc[nH]1)NC(=O)[C@@H]1CCC(=O)N1 [Protirelin] | 76.5%
51 | COCCCN1CCC(NC(=O)c2cc(Cl)c(N)c3c2OCC3)CC1 [Prucalopride] | 129.1%
52 | COc1ccc(C[C@H](N)C(=O)N[C@H]2[C@@H](O)[C@H](n3cnc4c(N(C)C)ncnc43)O[C@@H]2CO)cc1 [Puromycin 2HCl] | 0%
53 | NC(=O)c1cnccn1 [Pyrazinamide] | 83.05%
54 | CCc1nc(N)nc(N)c1-c1ccc(Cl)cc1 [Pyrimethamine] | 41.03%
55 | OCCOCCN1CCN(C2=Nc3ccccc3Sc3ccccc32)CC1 [Quetiapine Fumarate] | 47.46%
56 | O=C(c1ccc(OCCN2CCCCC2)cc1)c1c(-c2ccc(O)cc2)sc2cc(O)ccc12 [Raloxifene HCl] | 36.92%
57 | Cc1nnc(C(=O)NC(C)(C)c2nc(C(=O)NCc3ccc(F)cc3)c(O)c(=O)n2C)o1 [Raltegravir (MK-0518)] | 181.8%
58 | CCC(=O)NCC[C@@H]1CCc2ccc3c(c21)CCO3 [Ramelteon] | 64.95%
59 | CCOC(=O)[C@H](CCc1ccccc1)N[C@@H](C)C(=O)N1[C@H](C(=O)O)C[C@@H]2CCC[C@@H]21 [Ramipril] | 75.42%
60 | CNC(=C[N+](=O)[O-])NCCSCc1ccc(CN(C)C)o1 [Ranitidine] | 97.03%
61 | COc1ccccc1OCC(O)CN1CCN(CC(=O)Nc2c(C)cccc2C)CC1 (centres unmarked) [Ranolazine] | 67.8%
62 | C#CCN[C@@H]1CCc2ccccc21 [Rasagiline Mesylate] | 103.1%
63 | O=C(NC(Cc1cc(=O)[nH]c2ccccc12)C(=O)O)c1ccc(Cl)cc1 (centres unmarked) [Rebamipide] | 125.4%
64 | CN(C)Cc1ccc(S(=O)(=O)n2ccc(/C=C/C(=O)NO)c2)cc1 [Resminostat] | 19.9%
65 | CO[C@H]1/C=C/O[C@@]2(C)Oc3c(C)c(O)c4c(c3C2=O)C2=NC3(CCN(CC(C)C)CC3)NC2=C(NC(=O)/C(C)=C\C=C\[C@H](C)[C@H](O)[C@@H](C)[C@@H](O)[C@@H](C)[C@H](OC(C)=O)[C@@H]1C)C4=O [Rifabutin] | 70.34%
66 | CO[C@H]1/C=C/O[C@@]2(C)Oc3c(C)c(O)c4c(O)c(c(/C=N/N5CCN(C)CC5)c(O)c4c3C2=O)NC(=O)/C(C)=C\C=C\[C@H](C)[C@H](O)[C@@H](C)[C@@H](O)[C@@H](C)[C@H](OC(C)=O)[C@@H]1C [Rifampin] | 76.69%
67 | CO[C@H]1/C=C/O[C@@]2(C)Oc3c(C)c(O)c4c(O)c(c(/C=N/N5CCN(C6CCCC6)CC5)c(O)c4c3C2=O)NC(=O)/C(C)=C\C=C\[C@H](C)[C@H](O)[C@@H](C)[C@@H](O)[C@@H](C)[C@H](OC(C)=O)[C@@H]1C [Rifapentine] | 69.07%
68 | CO[C@H]1/C=C/O[C@@]2(C)Oc3c(C)c(O)c4c(O)c(c5c(nc6cc(C)ccn65)c4c3C2=O)NC(=O)/C(C)=C\C=C\[C@H](C)[C@H](O)[C@@H](C)[C@@H](O)[C@@H](C)[C@H](OC(C)=O)[C@@H]1C [Rifaximin] | 94.49%
